According to PubChem BioAssay (NCI):
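Cultured in 96-well plates, cells were exposed to test compound for 48 hours across five concentrations. At the GI50, growth is halved. Definition used: TGI = concentration required for complete inhibition of growth.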

Assays:
Assay in all cases: DTP human tumour cell line panel, 48 h
[1] = system: A549 NSCLC
[2] = system: CAKI-1 renal
[3] = system: KM12 colon
[4] = system: M14 melanoma
[5] = system: OVCAR-5 ovarian
[6] = system: SK-MEL-2 melanoma
[7] = system: SK-MEL-28 melanoma
[8] = system: SK-OV-3 ovarian
[9] = system: SNB-19 CNS
[10] = system: SNB-75 CNS
[11] = system: TK-10 renal
[12] = system: SR leukemia

SMILES	TGI [1]	TGI [2]	TGI [3]	TGI [4]	TGI [5]	TGI [6]	TGI [7]	TGI [8]	TGI [9]	TGI [10]	TGI [11]	GI50 [1]	GI50 [2]	GI50 [3]	GI50 [6]	GI50 [8]	GI50 [10]	GI50 [12]	TGI [12]	GI50 [11]
CC(=O)OC1CC(OC2C(O)CC(OC3C(O)CC(OC4CCC5(C)C(CCC6C5CCC5(C)C(C7=CC(=O)OC7)CCC65O)C4)OC3C)OC2C)OC(C)C1OC1OC(CO)C(O)C(O)C1O (stereo unspecified)	0.0221 µM	< 0.0321 µM	0.31 µM	0.188 µM	0.116 µM	0.245 µM	0.592 µM	0.186 µM	0.348 µM	0.249 µM	0.149 µM									
COCCNCc1ccc(-c2cc3nccc(Oc4ccc(NC(=O)C5(C(=O)Nc6ccc(F)cc6)CC5)cc4F)c3s2)nc1	4.15 µM	4.83 µM	2.95 µM			3.6 µM		3.78 µM		2.26 µM	4.43 µM	1.71 µM	2.08 µM	0.0411 µM	1.82 µM	1.93 µM	1.03 µM	1.96 µM	6.04 µM	2.21 µM
CO/C=C1\OC(=O)C=C1OC	> 100 µM	> 100 µM	> 100 µM		> 100 µM	> 100 µM	> 100 µM	> 100 µM	> 100 µM	> 100 µM										
O=S(O)CCCSSSCCCS(=O)O			> 100 µM	> 100 µM	> 100 µM	> 100 µM	> 100 µM	> 100 µM	> 100 µM	> 100 µM	> 100 µM								> 100 µM	
Cc1ccc(Nc2nc(=O)c3c([nH]c4ccccc43)s2)cc1	25.1 µM	24.5 µM	16.2 µM	18.1 µM		31.3 µM	> 100 µM	> 100 µM	> 100 µM	31.6 µM	23.9 µM								> 100 µM	
CC1(C)N=C(c2ccccc2)SC12S[C@@H]1CCCC[C@H]1S2	> 100 µM	> 100 µM	> 100 µM	> 100 µM	> 100 µM	> 100 µM	> 100 µM	> 100 µM	32.1 µM	> 100 µM	> 100 µM									
COc1cc(NCCC(=O)O)c2ncccc2c1	> 100 µM			> 100 µM	> 100 µM	> 100 µM	> 100 µM		> 100 µM		> 100 µM								> 100 µM	
c1ccc2c(c1)SCCc1cn[nH]c1-2	> 100 µM	> 100 µM	> 100 µM		> 100 µM	> 100 µM	> 100 µM	> 100 µM	> 100 µM	> 100 µM										
NNC(=O)CCc1ccc2ccc3ccccc3c2c1		> 100 µM	> 100 µM	> 100 µM	> 100 µM	> 100 µM	> 100 µM	> 100 µM	> 100 µM		> 100 µM								> 100 µM	
CN(c1ccccc1)c1nc(=[N+]2CCCC2)ss1	> 100 µM	> 100 µM	> 100 µM	> 100 µM		> 100 µM	> 100 µM	> 100 µM	> 100 µM	> 100 µM	> 100 µM								> 100 µM	
